# Data taken from patent US20250376445A1, “COMPOUNDS AND METHODS FOR YAP/TEAD MODULATION AND INDICATIONS THEREFOR” (OPNA BIO SA, priority 2023, published 2025).
# Test system: TEAD-dependent transcription
# Assay: TEAD-dependent transcription cell-based reporter assay (MSTO-211H+12XGTIIC luciferase)
# Set-up: species or system human
# Settings: Homo sapiens; MSTO-211H+12XGTIIC reporter cells, 24 hours compound incubation, luminescence normalized to viability; read-out: MSTO-211H GMean IC50 (uM) Cell Assay Reporter Cell Variant: TEAD
# How it was run: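 MSTO-211H mesothelioma cells stably carrying a 12×GTIIC TEAD-element luciferase reporter were treated with serial compound dilutions for 24 h at 37° C. Luminescence was normalized to CellTiter-Fluor viability signal, with percent inhibition referenced to DMSO (high) and 20 μM K-975 (low) controls. IC50 obtained by nonlinear regression.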
row,Structure (SMILES),IC50 [µM]
1,"CS(=O)(=O)c1nc(C(=O)N2CCc3c(cccc3-c3ccc(C(F)(F)F)cc3)C2)c[nH]1 [O-0193, (2-(methylsulfonyl)-1H-imidazol-4-yl)(5-(4-(trifluoromethyl)phenyl)-3,4-dihydroisoquinolin-2(1H)-yl)methanone]",10 to 100
2,"C[C@H](N)C(=O)N1CCc2c(cccc2-c2ccc(C(F)(F)F)cc2)C1 [O-0194, (S)-2-amino-1-(5-(4-(trifluoromethyl)phenyl)-3,4-dihydroisoquinolin-2(1H)-yl)propan-1-one]",0.001 to 10
3,"C[C@H](NC(=O)OC(C)(C)C)C(=O)N1CCc2c(cccc2-c2ccc(C(F)(F)F)cc2)C1 [O-0195, tert-butyl (S)-(1-oxo-1-(5-(4-(trifluoromethyl)phenyl)-3,4-dihydroisoquinolin-2(1H)-yl)propan-2-yl)carbamate]",> 100
4,"C[C@@H](NC(=O)OC(C)(C)C)C(=O)N1CCc2c(cccc2-c2ccc(C(F)(F)F)cc2)C1 [O-0196, tert-butyl (R)-(1-oxo-1-(5-(4-(trifluoromethyl)phenyl)-3,4-dihydroisoquinolin-2(1H)-yl)propan-2-yl)carbamate]",> 100
